Data from patent publication US20090239877A1, “NOVEL 1,2,4-TRIAZOLE DERIVATIVES AND PROCESS OF MANUFACTURING THEREOF” (AETERNA ZENTARIS GmbH, priority 2008, published 2009).

Tests used:
human GHS-R 1a [1] = target: T1, human GHS-R 1a (Homo sapiens, UniProt Q92847); assay: GHS-R 1a receptor-ligand binding assay (membrane preparations from transfected LLC PK-1 cells); parameters: expressed in transfected cells; conditions: displacement of 125I-His9-ghrelin; plasma membranes of LLC PK-1 cells transiently transfected with human GHS-R 1a; mean of at least two independent experiments in triplicates
T1 sequence (Q92847 whole entry): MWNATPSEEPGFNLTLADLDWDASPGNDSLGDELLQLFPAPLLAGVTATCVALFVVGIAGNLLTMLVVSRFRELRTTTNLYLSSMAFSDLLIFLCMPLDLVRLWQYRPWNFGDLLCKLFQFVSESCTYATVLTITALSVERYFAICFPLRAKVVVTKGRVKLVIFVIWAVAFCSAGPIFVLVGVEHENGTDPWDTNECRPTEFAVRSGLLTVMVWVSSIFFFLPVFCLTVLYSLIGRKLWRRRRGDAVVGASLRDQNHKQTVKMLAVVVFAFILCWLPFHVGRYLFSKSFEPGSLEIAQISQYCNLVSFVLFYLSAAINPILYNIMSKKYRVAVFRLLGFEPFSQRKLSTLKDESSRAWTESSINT
Description: II) GHS-R 1a Receptor-Ligand Binding Assay (Membrane Preparations from Transfected LLC PK-1 Cells)
The GHS-R 1a receptor binding/affinity studies were performed according to Guerlavais et al. (J. Med. Chem. 2003, 46: 1191-1203).
Isolated plasma membranes from LLC PK-1 cells, a renal epithelial cell line originally derived from porcine kidneys (ECACC No. 86121112) (10 μg of protein), that were transiently transfected with human GHS-R 1a cDNA (Guerlavais et al., J. Med. Chem. 2003, 46: 1191-1203), were incubated in homogenization buffer HB [50 mM Tris (pH 7.3), 5 mM MgCl2, 2.5 mM EDTA, and 30 μg/mL bacitracin (Sigma)] for 60 min at 25° C. (steady-state conditions) with […] ^125I-His^9-ghrelin (Amersham) in the presence or absence of competing compounds (compounds of the invention).
Nonspecific binding was defined using an excess (10^−6 M) of ghrelin. The binding reaction was stopped by addition of 4 mL of ice-cold HB followed by rapid filtration over Whatman GP/C filters presoaked with 0.5% polyethyleneimine to prevent excessive binding of radioligand to the filters. Filters were rinsed three times with 3 mL of icecold wash buffer [50 mM Tris (pH 7.3), 10 mM MgCl2, 2.5 mM EDTA, and 0.015% (w/v) X-100 Triton], and the radioactivity bound to membranes was measured in a gammacounter (Kontron Analytical Gamma Matic, Automatic gamma counting system).
The concentration of test compounds required to inhibit radiolabelled ghrelin binding by 50% (IC50) was determined by fitting competitive binding curves using non-linear regression (PRISM 3.0, Graph Pad San Diego, USA).
In the following table 2 results obtained for selected compounds of the invention are presented in comparison to an example of the prior art. IC50 values given are the mean of at least two independent experiments performed in triplicates.

human GHS-R 1a [2] = target: T1, human GHS-R 1a; assay: In vitro intracellular calcium release assay using human GHS-R 1a transfected CHO cells; type: cell-based; parameters: expressed in transfected cells; host or cells: CHO-K1 Chinese hamster ovary cells (ATCC No. CCL-61), transient transfection by electroporation; conditions: for activation at 1 µM: intracellular calcium release, compound at 10^-6 M, relative to basal level (0%) and 1 μM ghrelin (100%); for EC50: agonists, dose-response curve of intracellular calcium release
Description: The ability to properly activate the receptors is assessed for any compound of the invention by comparing the degree of activation (increase of intracellular calcium) of GHS-R 1a by the compound to be tested (at 10^−6 M concentration) to the degree of activation (increase of intracellular calcium) of GHS-R 1a by 10^−6 M ghrelin (100%) and to the basal level (0%). Such assessment can be readily performed by the skilled artisan due to his expert knowledge. The output is a percentage value for each compound to be tested. […]
III) In Vitro Intracellular Calcium Release Assay Using Human GHS-R 1a Transfected CHO Cells
The potential of the compounds of the invention to modulate GHS receptor activity was assessed by an in vitro intracellular Calcium release assay employing CHO cells that were transfected with human GHS-R 1a.
Release of intracellular calcium or inhibition thereof was measured using the fluorescent calcium indicator assay (FLIPR) and Fluo-4 AM.
CHO cells (CHO-KI Chinese Hamster Ovary cell line, ATCC No. CCL-61) were transiently transfected with human GHS-R 1a cDNA by electroporation and plated into 96-well black bottom plates (Corning 3603) (80,000 cells/well). Transient transfections were performed using the Easyject Optima Electroporator (Equibio), according to the manufacturer's instructions.
Transfected cells were grown in Dulbecco's modified Eagle's medium without phenol red, supplemented with 10% (v/v) non-essential amino acids, […] glutamine and streptomycin-penicillin (250 μg/ml-250 u/ml) (all purchased from Cambrex) at 37° C., 5% CO2 in a humidified atmosphere for 24 hours.
After incubation, transfected cells were washed with 150 μl Buffer A [Hanks' balanced salt solution (Sigma H-6648), 0.5% (v/v) BSA (Sigma A-7906), 20 mM CaCl2, 2.5 mM probenecid (pH 7.4, dissolved in 1 M NaOH) (Sigma P-8761)] and were then loaded with fluorescent calcium indicator Fluo-4 AM (10^−6 M) (Interchim UP72972) prepared in Buffer A, additionally containing 0.06% pluronic acid (Molecular probes P-6867) (a […] detergent which facilitates Fluo-4AM ester loading). (Loading: 100 μl per well of Buffer A containing 120 μl/ml Pluronic Acid and 1 μM Fluo-4AM was added to the cells).
After loading with Fluo-4 AM, transfected cells were incubated for 1 hour in the dark at 37° C.
Compounds to be tested were dissolved in Buffer A in triplicates at a concentration of 10^−6 M and distributed into another 96-well plate (Fisher Labosi A1210500).
Following incubation, excess Fluo-4AM was removed, 100 μl of Buffer A was added to each well at room temperature and immediately removed by aspiration. This was then repeated, before adding 50 μl Buffer A to each well.
Transfected cells were further incubated room temperature for 30 min to allow complete de-esterification of intracellular Fluo-4AM esters.
Subsequently, both plates, the black-bottom plate containing transfected cells and the microtiter plate containing the compounds to be tested, were then placed into a temperature-regulated (25° C.) FlexStation machine (benchtop scanning fluorometer Flex Station II, Molecular Devices, Sunnyvale, Calif., USA) for fluorescence output measurements.
Basal fluorescence output from the transfected cells was measured for 15 sec and then 50 μl of the compounds to be tested were automatically distributed into the wells containing the transfected cells. The fluorescence output was then recorded for a further 45 sec.
Excitation and emission wavelengths were 485 nm and 525 nm, respectively. Basal fluorescence intensity of Fluo-4AM-loaded transfected cells without compounds to be tested varied between 800-1200 arbitrary units, whereas maximal fluorescence output of dye-loaded transfected cells upon incubation with the compounds to be tested varied between 5000-7000 arbitrary units and was equivalent to that achieved by stimulation of dye-loaded transfected cells with 10^−6 M ghrelin. […]

SMILES | IC50 (human GHS-R 1a [1]) | activation at 1 µM (human GHS-R 1a [2]) | EC50 (human GHS-R 1a [2])
O=C(N[C@H](Cc1c[nH]c2ccccc12)c1nnc(CCc2c[nH]c3ccccc23)n1Cc1cccc2ccccc12)c1cnccn1 [Compound 32, N-((R)-1-(5-(2-(1H-indol-3-yl)ethyl)-4-((naphthalen-1-yl)methyl)-4H-1,2,4-triazol-3-yl)-2-(1H-indol-3-yl)ethyl)pyrazine-2-carboxamide] | 122 nM | 0% | 
COc1ccc(Cn2c(CCc3ccccc3)nnc2[C@@H](Cc2c[nH]c3ccccc23)NC(=O)C2(N)CCNCC2)cc1 [Compound 4, N-((R)-1-(4-(4-methoxybenzyl)-5-phenethyl-4H-1,2,4-triazol-3-yl)-2-(1H-indol-3-yl)ethyl)-4-aminopiperidine-4-carboxamide] | 6.6 nM | 90% | 4.1 nM
O=C(N[C@H](Cc1c[nH]c2ccccc12)c1nnc(CCc2ccccc2)n1Cc1cccc2ccccc12)C1CCNCC1 [Compound 15, N-((R)-2-(1H-indol-3-yl)-1-(4-((naphthalen-1-yl)methyl)-5-phenethyl-4H-1,2,4-triazol-3-yl)ethyl)piperidine-4-carboxamide] | 17 nM | 120% | 2 nM
NC1(C(=O)N[C@H](Cc2c[nH]c3ccccc23)c2nnc(CCCc3c[nH]c4ccccc34)n2Cc2ccccc2)CCNCC1 [Compound 43, N-((R)-1-(5-(3-(1H-indol-3-yl)propyl)-4-benzyl-4H-1,2,4-triazol-3-yl)-2-(1H-indol-3-yl)ethyl)-4-aminopiperidine-4-carboxamide] | 35 nM |  | 6.4 nM
COc1cccc(Cn2c(CCCc3ccccc3)nnc2[C@@H](Cc2c[nH]c3ccccc23)NC(=O)C(C)(C)N)c1 [Compound 1, N-((R)-1-(4-(3-methoxybenzyl)-5-(3-phenylpropyl)-4H-1,2,4-triazol-3-yl)-2-(1H-indol-3-yl)ethyl)-2-amino-2-methylpropanamide] | 380 nM | 47% | 
COc1ccc(Cn2c(CCc3cc4ccccc4[nH]3)nnc2[C@@H](Cc2c[nH]c3ccccc23)NC(=O)C2(N)CCNCC2)cc1 [Compound 3, N-((R)-1-(5-(2-(1H-indol-2-yl)ethyl)-4-(4-methoxybenzyl)-4H-1,2,4-triazol-3-yl)-2-(1H-indol-3-yl)ethyl)-4-aminopiperidine-4-carboxamide] | 16 nM | 106% | 4.4 nM
O=C(N[C@H](Cc1c[nH]c2ccccc12)c1nnc(Cc2ccccc2)n1Cc1ccc(Cl)c(Cl)c1)[C@@H]1CCCN1 [Compound 35, (2S)-N-((R)-1-(4-(3,4-dichlorobenzyl)-5-benzyl-4H-1,2,4-triazol-3-yl)-2-(1H-indol-3-yl)ethyl)pyrrolidine-2-carboxamide] |  | 60% | 17 nM
O=C(N[C@H](Cc1c[nH]c2ccccc12)c1nnc(CCCc2c[nH]c3ccccc23)n1Cc1ccccc1)C1CCNCC1 [Compound 22, N-((R)-1-(5-(3-(1H-indol-3-yl)propyl)-4-benzyl-4H-1,2,4-triazol-3-yl)-2-(1H-indol-3-yl)ethyl)piperidine-4-carboxamide] | 40 nM | 150% | 1.6 nM
NC1(C(=O)N[C@H](Cc2c[nH]c3ccccc23)c2nnc(CCc3c[nH]c4ccccc34)n2Cc2cccc3ccccc23)CCNCC1 [Compound 48, N-((R)-1-(5-(2-(1H-indol-3-yl)ethyl)-4-((naphthalen-1-yl)methyl)-4H-1,2,4-triazol-3-yl)-2-(1H-indol-3-yl)ethyl)-4-aminopiperidine-4-carboxamide] | 12 nM | 100% | 3.9 nM
COc1ccc(Cn2c(CCc3c[nH]c4ccccc34)nnc2[C@@H](Cc2c[nH]c3ccccc23)NC(=O)C2(N)CCNCC2)cc1 [Compound 47, N-((R)-1-(5-(2-(1H-indol-3-yl)ethyl)-4-(4-methoxybenzyl)-4H-1,2,4-triazol-3-yl)-2-(1H-indol-3-yl)ethyl)-4-aminopiperidine-4-carboxamide] | 150 nM | 100% | 38 nM
COc1ccc(Cn2c(CCc3ccccc3)nnc2[C@@H](Cc2ccc3ccccc3c2)NC(=O)C(C)(C)N)cc1 [Compound 55, N-((R)-1-(4-(4-methoxybenzyl)-5-phenethyl-4H-1,2,4-triazol-3-yl)-2-(naphthalen-2-yl)ethyl)-2-amino-2-methylpropanamide] | 13.7 nM |  | 
CC(C)(N)C(=O)N[C@H](Cc1c[nH]c2ccccc12)c1nnc(CCc2ccccc2)n1Cc1ccc(-c2ccccc2)cc1 [Compound 73, 2-amino-N-((R)-1-(4-(4-phenylbenzyl)-5-phenethyl-4H-1,2,4-triazol-3-yl)-2-(1H-indol-3-yl)ethyl)-2-methylpropanamide] | 150 nM |  | 
O=C(N[C@H](Cc1c[nH]c2ccccc12)c1nnc(CCCc2c[nH]c3ccccc23)n1Cc1cccc2ccccc12)c1cnccn1 [Compound 51, N-((R)-1-(5-(3-(1H-indol-3-yl)propyl)-4-((naphthalen-1-yl)methyl)-4H-1,2,4-triazol-3-yl)-2-(1H-indol-3-yl)ethyl)pyrazine-2-carboxamide] | 107 nM |  | 
O=C(N[C@H](Cc1c[nH]c2ccccc12)c1nnc(CCc2ccccc2)n1CCc1ccccc1)c1ccccc1 [Compound 63, N-((R)-2-(1H-indol-3-yl)-1-(4,5-diphenethyl-4H-1,2,4-triazol-3-yl)ethyl)benzamide] | 535 nM |  | 
O=C(N[C@H](Cc1c[nH]c2ccccc12)c1nnc(Cc2ccccc2)n1Cc1ccc(Cl)c(Cl)c1)c1cnccn1 [Compound 38, N-((R)-1-(4-(3,4-dichlorobenzyl)-5-benzyl-4H-1,2,4-triazol-3-yl)-2-(1H-indol-3-yl)ethyl)pyrazine-2-carboxamide] | 430 nM |  | 
